Reference: ChEMBL document CHEMBL3507680, “University of Dundee, Gates Library screen for HepG2 cell viability”

Test: Human HepG2 cell viability assay in 384 well format
Assay type: toxicity, cell-based
Parameters: dose 125 nL, time 70.5 hour; cytotoxicity at 70.5 h: concentration not given beside the values
Settings: HepG2 cells, read-out: Inhibition

Q: For `COc1cc(C)nc(N2CCN(C(=O)c3cccc(C#N)c3)CC2)n1`, which cytotoxicity at 70.5 h is on record?
A: -5.09%

Q: With `Cc1ccccc1C(C)(C)CNC(=O)CN(C)c1cnccn1` as the molecule, how does the cytotoxicity at 70.5 h read?
A: -0.621%

Q: With `CCc1c(C)nc(C)nc1N1C[C@@H](CN(C)C)[C@@H](CO)C1` as the molecule, how does the cytotoxicity at 70.5 h read?
A: -1.15%

Q: Which cytotoxicity at 70.5 h does the source give for `CC(NCCCN1CCCN(C)CC1)C(C)(C)C` (configuration not stated) here?
A: -11.8%

Q: With `Cc1nc(C)n(CC2CCCN(Cc3nc(C4CC4)no3)C2)n1` (configuration not stated) as the molecule, how does the cytotoxicity at 70.5 h read?
A: -1.73%

Q: Which cytotoxicity at 70.5 h does the source give for `Cc1ccc(-n2ccnc2-c2cn(C3CCNCC3)nn2)c(Cl)c1` here?
A: 2.06%

Q: Which cytotoxicity at 70.5 h does the source give for `c1cncc(OC[C@]23COC[C@H]2CN(Cc2ccsc2)C3)c1` here?
A: -129%

Q: With `CN(Cc1cccnc1)Cc1cn2c(n1)CN(C1CCOCC1)CC2` as the molecule, how does the cytotoxicity at 70.5 h read?
A: -4.27%

Q: With `CC(C)(C)OC(=O)NCC1CCCCN1Cc1cccnc1` (configuration not stated) as the molecule, how does the cytotoxicity at 70.5 h read?
A: -0.715%

Q: With `Cc1nccn1C1CCCN(C(=O)c2cc(Cl)c3c(c2)OCO3)C1` (configuration not stated) as the molecule, how does the cytotoxicity at 70.5 h read?
A: -5.54%

Q: For `O=C(N[C@@H]1CCNC[C@H]1O)c1ccc(-c2ccc(F)cc2)cc1`, which cytotoxicity at 70.5 h is on record?
A: -1.9%

Q: Which cytotoxicity at 70.5 h does the source give for `Cc1cc(-n2cncn2)ccc1C(=O)N(CC(F)(F)F)C(C)C` here?
A: -7.81%

Q: With `CC(C)c1cc(N2CCC(N(C)C)C2)n2nccc2n1` (configuration not stated) as the molecule, how does the cytotoxicity at 70.5 h read?
A: -8.85%

Q: For `COc1ccccc1CNC1(CCO)CCOCC1`, which cytotoxicity at 70.5 h is on record?
A: 20.6%

Q: For `CCCn1ncc(C(=O)NC(C)c2c(C)nn(CC)c2C)c1C` (configuration not stated), which cytotoxicity at 70.5 h is on record?
A: -8.47%

Q: Which cytotoxicity at 70.5 h does the source give for `CC(C)CCN1Cc2c(C(=O)N3CCCC3)nn(C)c2C1` here?
A: 15%

Q: Which cytotoxicity at 70.5 h does the source give for `Cc1cnn(CC(C)NCc2ccc(S(C)(=O)=O)cc2)c1` (configuration not stated) here?
A: -1.78%

Q: With `Cc1cnc(C)c(-c2cc(O)c3c(c2)CN(Cc2nccs2)CCO3)n1` as the molecule, how does the cytotoxicity at 70.5 h read?
A: -4.63%

Q: With `CNC(=O)CCNC(=O)c1cccc(Cn2nc(C)cc2C)c1` as the molecule, how does the cytotoxicity at 70.5 h read?
A: -3.48%

Q: With `COCCN1Cc2ccccc2C2(CCN(C(=O)c3ccno3)CC2)C1` as the molecule, how does the cytotoxicity at 70.5 h read?
A: 2.49%

Q: With `Cc1nnc2sc(-c3cc(C(C)C)n[nH]3)nn12` as the molecule, how does the cytotoxicity at 70.5 h read?
A: -4.97%

Q: With `CCN(C)Cc1n[nH]c(=O)n1-c1cc(F)ccc1C` as the molecule, how does the cytotoxicity at 70.5 h read?
A: -5.83%

Q: Which cytotoxicity at 70.5 h does the source give for `Cc1ccc(-c2nc(CC(=O)NCC3CCOC3)cs2)o1` (configuration not stated) here?
A: -2.56%

Q: For `CC(C)Nc1nc(N2CCOCC2)nc2c1CN(CC(=O)N(C)C)CC2`, which cytotoxicity at 70.5 h is on record?
A: 26.3%

Q: For `CCOC1COC2(CCN(S(=O)(=O)c3cccc(C)c3)CC2)C1` (configuration not stated), which cytotoxicity at 70.5 h is on record?
A: -6.02%

Q: With `CN(Cc1ccccc1)c1ncccc1CNC1CCCC1` as the molecule, how does the cytotoxicity at 70.5 h read?
A: -1.34%

Q: Which cytotoxicity at 70.5 h does the source give for `Cc1nc(C2CCCNC2)cc(N(Cc2c(C)nn(C)c2C)C2CC2)n1` (configuration not stated) here?
A: -0.0304%

Q: Which cytotoxicity at 70.5 h does the source give for `Cc1noc(C)c1CN1CCO[C@H]2CN(CC3CC3)C[C@H]21` here?
A: -28.9%

Q: Which cytotoxicity at 70.5 h does the source give for `CCc1nc(C)c(C(=O)NCCNc2ncccc2C#N)s1` here?
A: 19.3%

Q: Which cytotoxicity at 70.5 h does the source give for `Cn1cnnc1C1CCCN(C(=O)c2cc3ccccc3[nH]2)C1` (configuration not stated) here?
A: -11.2%

Q: Which cytotoxicity at 70.5 h does the source give for `COC(=O)C(C)(C)NC(=O)C1CC(=O)N(C)C1` (configuration not stated) here?
A: -7.02%

Q: For `CC(C)N1[C@H](CN2CCCC2)C[C@@H]2CN(Cc3cnn(C)c3)CC[C@@H]21`, which cytotoxicity at 70.5 h is on record?
A: -10.1%

Q: For `COc1c(C2CCCN2CC(=O)N2CCCCC2)c(C)nn1C` (configuration not stated), which cytotoxicity at 70.5 h is on record?
A: 4.89%

Q: For `N#Cc1ccc(C(=O)NCC2(N3CCOCC3)CCCC2)nc1`, which cytotoxicity at 70.5 h is on record?
A: -4.06%

Q: For `Cc1ccc(NC2CCN(C(=O)C(C(C)C)n3cncn3)CC2)nn1` (configuration not stated), which cytotoxicity at 70.5 h is on record?
A: -4.96%

Q: Which cytotoxicity at 70.5 h does the source give for `CSC1=Nc2c(cnn2-c2ccccc2)C2=NCCCN12` here?
A: -8.98%

Q: Which cytotoxicity at 70.5 h does the source give for `O=C(c1ccc(F)c(F)c1)N1C[C@H]2CNC[C@H]2C1` here?
A: -11.5%

Q: With `Cc1noc(Cl)c1CCC(=O)N1CCC(Nc2cccnn2)CC1` as the molecule, how does the cytotoxicity at 70.5 h read?
A: -0.162%

Q: Which cytotoxicity at 70.5 h does the source give for `CCOc1ccccc1CNC(=O)N1CCC(Cc2cnn(C)c2)C1` (configuration not stated) here?
A: 7.83%

Q: With `CCN(CC(=O)NCc1nc(C2CC2)no1)Cc1ccc(Cl)cc1` as the molecule, how does the cytotoxicity at 70.5 h read?
A: -15.6%

Q: Which cytotoxicity at 70.5 h does the source give for `CCOC1CCN(C(=O)Nc2ccc(=O)n(C)c2)CC1` here?
A: 25%

Q: With `CCN(C(=O)Nc1nncs1)C(C)c1cccc(OC)c1` (configuration not stated) as the molecule, how does the cytotoxicity at 70.5 h read?
A: -9.86%

Q: With `CC(C)NC(=O)CCNC(=O)c1cnc(Cc2ccc(F)cc2)s1` as the molecule, how does the cytotoxicity at 70.5 h read?
A: -4.85%

Q: Which cytotoxicity at 70.5 h does the source give for `O=C(Nc1ccc(N2CCCC2)nc1)N1CCc2ccccc2C1` here?
A: 3.91%

Q: With `CC(C)(C)n1ncc2c1NC(=O)CSC2c1ccc2c(c1)OCCO2` (configuration not stated) as the molecule, how does the cytotoxicity at 70.5 h read?
A: -13%

Q: For `O=C(COc1ccc(Cl)cc1)Nc1cnc(N2CCOCC2)nc1`, which cytotoxicity at 70.5 h is on record?
A: 1.79%

Q: Which cytotoxicity at 70.5 h does the source give for `CCN1CCC(CC(=O)N2CCn3cccc3C2c2cccnc2)CC1` (configuration not stated) here?
A: 28.5%

Q: With `Cc1ccc([C@@H]2CN(C(=O)CCc3cc(Cl)no3)C[C@H]2N(C)C)cc1` as the molecule, how does the cytotoxicity at 70.5 h read?
A: 11.1%

Q: For `NC(=O)CC1CCCCN1C(=O)Cc1cccc(Br)c1` (configuration not stated), which cytotoxicity at 70.5 h is on record?
A: -4.57%

Q: With `O=C([C@H]1C[C@H]2OCC[C@H]2N(CC2CCOCC2)C1)N1CCCC1` as the molecule, how does the cytotoxicity at 70.5 h read?
A: -2.01%

Q: For `Cc1nc(CN2CCC3(CC2)NC(=O)CC3c2ccccc2)cs1` (configuration not stated), which cytotoxicity at 70.5 h is on record?
A: -2.14%

Q: Which cytotoxicity at 70.5 h does the source give for `OCC1COCCN(c2ncccc2C(F)(F)F)C1` (configuration not stated) here?
A: 3.25%

Q: Which cytotoxicity at 70.5 h does the source give for `Cc1occc1C(=O)N1CCC2(CC1)CN(Cc1nccs1)CCO2` here?
A: 7.01%

Q: Which cytotoxicity at 70.5 h does the source give for `O=C(CSc1nncs1)N1CCN(Cc2ccc(Cl)s2)CC1` here?
A: -9.92%

Q: Which cytotoxicity at 70.5 h does the source give for `O=c1[nH]c2nc(NC3CC3)ncc2c(=O)n1-c1ccc(F)cc1` here?
A: 0.679%

Q: Which cytotoxicity at 70.5 h does the source give for `CCn1nc(C)c(CCNC(=O)c2cccc(-n3cccn3)c2)c1C` here?
A: -3.23%

Q: Which cytotoxicity at 70.5 h does the source give for `CC1=CCN(S(=O)(=O)c2cccc(C(=O)N3CCCN(C)CC3)c2)CC1` here?
A: -10.6%
